Experimental findings from ChEMBL document CHEMBL1142165, “Influence on mitochondria and cytotoxicity of different antibiotics administered in high concentrations on primary human osteoblasts and cell lines” (Antimicrob Agents Chemother, 2007) are described below.

Data set [1] is described as follows: Antiproliferative effect against primary human osteoblasts assessed as BrdU incorporation into DNA after 48 hrs. The data set is classed as functional, cell-based. As to conditions: Osteoblast.
Data set [2] concerns MG-63. Briefly: Antiproliferative effect against MG63 cells assessed as BrdU incorporation into DNA after 48 hrs after 48 hrs. The data set is classed as functional, cell-based. As to conditions: Homo sapiens, MG-63, 48 h. A general note: Incorporation of labelled thymidine or its analogues reports DNA synthesis.
Data set [3] relates to HeLa. Kind of data set: Antiproliferative effect against HeLa cells after 48 hrs. Type of data set: functional, cell-based. As to conditions: Homo sapiens.
Data set [4] has as its system Osteoblast. Kind of data set: Increase in lactate production in primary human osteoblasts at 400 ug/ml by ELISA relative to control. Type of data set: functional. For orientation: ELISA stands for enzyme-linked immunosorbent assay.
The nature of data set [5]: Cytotoxicity against primary human osteoblasts at 400 ug/ml assessed as LDH release after 24 hrs. As to conditions: osteoblast, at 400 µg/mL.
Data set [6] deals with Osteoblast. Briefly: Inhibition of metabolic activity in primary human osteoblasts assessed as MTT reduction after 48 hrs. Type of data set: functional, cell-based. Background: Tetrazolium dyes change colour on reduction, which living cells bring about.
The subject of data set [7] is MG-63. Briefly: Inhibition of metabolic activity in MG63 cells assessed as MTT reduction after 48 hrs. Type of data set: functional, cell-based. As to conditions: Homo sapiens, MG-63, 48 h.
Data set [8] relates to HeLa. Briefly: Inhibition of metabolic activity in HeLa cells assessed as MTT reduction after 48 hrs. As to conditions: Homo sapiens. Type of data set: functional, cell-based.
Data set [9] concerns Osteoblast. Briefly: Antiproliferative effect against primary human osteoblasts assessed as BrdU incorporation into DNA at 10 ug/ml after 48 hrs. The data set is classed as functional, cell-based.
The subject of data set [10] is Osteoblast. Briefly: Increase in lactate production in primary human osteoblasts at 25 to 50 ug/ml by ELISA. The data set is classed as functional.
The test system of data set [11] is Osteoblast. Briefly: Increase in lactate production in primary human osteoblasts at 6 ug/ml by ELISA. The data set is classed as functional.
Data set [12] deals with Osteoblast. Kind of data set: Blocking of clindamycin-induced lactate production in primary human osteoblasts at 20 mM by ELISA. The data set is classed as functional, cell-based.
For data set [13], the system named is Osteoblast. Kind of data set: Blocking of clindamycin-induced LDH release in primary human osteoblasts at 20mM by ELISA. Type of data set: functional, cell-based.
For data set [14], the system named is Osteoblast. Briefly: Antiproliferative effect against primary human osteoblasts in presence of 10% FCS. The data set is classed as functional, cell-based.
A short description of data set [15]: Cytotoxicity against primary human osteoblasts at 100 ug/ml assessed as LDH release after 24 hrs. The data set is classed as cell-based. As to conditions: osteoblast.
Data set [16] is described as follows: Cytotoxicity against primary human osteoblasts at 200 ug/ml assessed as LDH release after 24 hrs. Type of data set: cell-based. As to conditions: osteoblast.
The test system of data set [17] is MG-63. Kind of data set: Increase in lactate production in MG63 cells at 400 ug/ml by ELISA relative to control. The data set is classed as functional, Homo sapiens.
The test system of data set [18] is Osteoblast. Briefly: Increase in lactate production in primary human osteoblasts at 1 uM after 1 hr by ELISA. The data set is classed as functional, cell-based.
In data set [19] the test system is MG-63. Briefly: Increase in lactate production in MG63 cells at 1 uM after 1 hr by ELISA. The data set is classed as functional, cell-based. As to conditions: Homo sapiens.

Converted amounts (≈) assume the structure as drawn. The source made the active and inactive calls. The calls are words filed in the database; no cut-off is given here. A value given as a limit tells only on which side of the number the result lay.

In the case of `CO[C@H]1/C=C/O[C@@]2(C)Oc3c(C)c(O)c4c(O)c(c(/C=N/N5CCN(C)CC5)c(O)c4c3C2=O)NC(=O)/C(C)=C\C=C\[C@H](C)[C@H](O)[C@@H](C)[C@@H](O)[C@@H](C)[C@H](OC(C)=O)[C@@H]1C` [RIFAMPIN], the IC20 (in general, the point of the concentration-response curve where the effect stands at 20%) in data set [1] was 30 µg/mL (≈ 36.5 µM); with MG-63 [2] it was 120 µg/mL (≈ 146 µM); with HeLa [3], 180 µg/mL (≈ 219 µM). The IC50 (in general, the concentration that gives 50% inhibition) in [1] was found to be 130 µg/mL (≈ 158 µM); in the data set with MG-63 [2] it was 240 µg/mL (≈ 292 µM); with HeLa [3], 270 µg/mL (≈ 328 µM). Besides, in the data set with Osteoblast [4], the Activity is recorded as 40%.
Consider `COc1c(N2C[C@@H]3CCCN[C@@H]3C2)c(F)cc2c(=O)c(C(=O)O)cn(C3CC3)c12` [MOXIFLOXACIN], for which the Activity (in data set [5]; in the data set with Osteoblast [10]) was 10% in each case. The IC20 in data set [1] is 80 µg/mL (≈ 199 µM); with Osteoblast [6], 190 µg/mL (≈ 473 µM); in the data set on MG-63 [2], 110 µg/mL (≈ 274 µM); with MG-63 [7], 30 µg/mL (≈ 74.7 µM); in the data set on HeLa [3], 90 µg/mL (≈ 224 µM); in the data set on HeLa [8], 40 µg/mL (≈ 99.6 µM). The IC50 in [1] is 160 µg/mL (≈ 399 µM); in the data set on Osteoblast [6], over 400 µg/mL; in the data set on MG-63 [2] it was 230 µg/mL (≈ 573 µM); in the data set on MG-63 [7], 170 µg/mL (≈ 423 µM); with HeLa [3], 320 µg/mL (≈ 797 µM); with HeLa [8], 110 µg/mL (≈ 274 µM). Besides, the outcome in the data set on Osteoblast [9] was Active.
`CC(=O)NC[C@H]1CN(c2ccc(N3CCOCC3)c(F)c2)C(=O)O1` [LINEZOLID]: the IC20 in data set [1] is 240 µg/mL (≈ 711 µM); in the data set on Osteoblast [6], over 400 µg/mL; in the data set with MG-63 [7], 250 µg/mL (≈ 741 µM); in the data set on HeLa [8], 300 µg/mL (≈ 889 µM). In addition, the IC50 (in data set [1]; in the data set with Osteoblast [6]; in the data set with MG-63 [7]; with HeLa [8]) was over 400 µg/mL in each case. Further, the Activity in the data set on Osteoblast [4] was determined as 120%; in the data set on Osteoblast [11] it was 13%.
For the compound `Nc1ncnc2c1ncn2[C@@H]1O[C@H](CO)[C@@H](O)[C@H]1O`, the outcome with Osteoblast [12] and in the data set on Osteoblast [13] was Active.
Consider GENTAMICIN, for which, in the data set on Osteoblast [14], the outcome was inactive.
Consider `CC[C@H]1OC(=O)[C@H](C)[C@@H](O[C@H]2C[C@@](C)(OC)[C@@H](O)[C@H](C)O2)[C@H](C)[C@@H](O[C@@H]2O[C@H](C)C[C@H](N(C)C)[C@H]2O)[C@](C)(O)C[C@@H](C)CN(C)[C@H](C)[C@@H](O)[C@]1(C)O` [AZITHROMYCIN], for which the Activity worked out at 40% in data set [5], 20% in [15], 40% in data set [16] and 30% with MG-63 [17]. The IC20 came to 20 µg/mL (≈ 26.7 µM) in data set [1]; 80 µg/mL (≈ 107 µM) in the data set with Osteoblast [6]; 30 µg/mL (≈ 40.1 µM) in the data set on MG-63 [2]; 70 µg/mL (≈ 93.5 µM) with MG-63 [7]; 110 µg/mL (≈ 147 µM) in the data set on HeLa [3]; 50 µg/mL (≈ 66.8 µM) with HeLa [8]. For the same compound, the IC50 amounted to 25 µg/mL (≈ 33.4 µM) in data set [1]; 160 µg/mL (≈ 214 µM) with Osteoblast [6]; 190 µg/mL (≈ 254 µM) with MG-63 [2]; 180 µg/mL (≈ 240 µM) in the data set on MG-63 [7]; 240 µg/mL (≈ 320 µM) in the data set with HeLa [3]; 160 µg/mL (≈ 214 µM) with HeLa [8].
Regarding `C=C(C)[C@H]1Cc2c(ccc3c2O[C@@H]2COc4cc(OC)c(OC)cc4[C@@H]2C3=O)O1`, the result in the data set with Osteoblast [18] and in the data set with MG-63 [19] was Active.
